Data from patent US20190185829A1, “Preparation of lipase with improved ester synthesis activity by using surfactants” (Jiangnan University, priority 2017, published 2019).

What was measured:
Format in all cases: biochemical
[1] = molecular target: T1, Candida antarctica lipase CALB (Moesziomyces antarcticus, UniProt P41365); assay: Hydrolytic activity of surfactant-treated lipase CALB using pNPP as substrate; conditions: surfactant 10 mM, protein 0.12 mg·mL^−1
T1 construct: purchased Sigma-Aldrich Co., Ltd
Excerpt: (§1) (1) Determination of Hydrolytic Activity of the Lipase Using p-Nitrophenyl Palmitate (pNPP) as Substrate
(§2) Hydrolysis of pNPP catalyzed by lipase generates p-nitrophenol and palmitic acid. p-nitrophenol appears yellow in the buffer at pH 8.0 with the maximum absorption peak at 410 nm. Determination of hydrolytic activity can be achieved by measuring the absorbance at 410 nm.
(§3) The substrate solution A: 50 mmol·L^−1 sodium phosphate buffer (pH 8.0) containing 1.16 g·L^−1 sodium deoxycholate and 0.56 g·L^−1 arabic gum. Substrate solution B: 0.015 g pNPP is dissolved in 5 mL isopropyl alcohol. Substrate solution A and substrate solution B are mixed then stored for use afterwards.
(§4) Termination solution: 40 g·L^−1 NaOH, 93.05 g·L^−1 EDTA sodium. Add 62 uL termination solution to the reaction mixture when stopping the reaction.
(§5) Add 0.1 mL appropriately diluted enzyme solution, which is substituted by inactivated enzyme solution as the control, to 2.4 mL substrate solution above, incubate the mixture at 40° C. for 2 min and measure the absorbance at 410 nm.
(§6) one hydrolytic activity unit is defined as the amount of enzyme that catalyzes the formation of 1 μmol of p-nitrophenol in 1 minute at 40° C.
(§7) enzyme activity (U·mL^−1)=(V×A410×10^6)/(ε×t×V′) Calculation equation: […]
(§8) Specific activity: the activity of lipase per milligram of total protein in the lipase preparation. […]
(§9) Commercial lipase CALB was purchased from Sigma-Aldrich Co., Ltd. CALB is a non-immobilized lipase. Dissolve the CALB powder in water and centrifuge to obtain the supernatant containing the CALB lipase that would be regulated to improve the ester synthesis activity by adjusting the final protein concentration to 0.12 mg·mL^−1 and adding surfactants to the final concentration of 10 mM.
(§10) Commercial lipase CALB was purchased from Sigma-Aldrich Co., Ltd. and is a non-immobilized lipase. Dissolve the CALB powder in water, centrifuge to obtain the supernatant and treat the supernatant with different concentrations of surfactant DDM (the final protein concentration was 0.12 mg·mL^−1).

[2] = molecular target: T2, Pseudomonas cepacia lipase PCL (Burkholderia cepacia, UniProt P22088); assay: Hydrolytic activity of surfactant-treated lipase PCL using pNPP as substrate; conditions: surfactant 10 mM, protein 0.2 mg·mL^−1
T2 construct: purchased Sigma-Aldrich Co., Ltd
Excerpt: as §1, §2, §3, §4, §5, §6, §7, §8
(§11) Commercial lipase PCL was purchased from Sigma-Aldrich Co., Ltd. PCL is a non-immobilized lipase. Dissolve the PCL powder in water and centrifuge to obtain the supernatant containing the PCL lipase that would be regulated to improve the ester synthesis activity by adjusting the final protein concentration to 0.2 mg·mL^−1 and adding surfactants to the final concentration of 10 mM.
(§12) Commercial lipase PCL was purchased from Sigma-Aldrich Co., Ltd. and is a non-immobilized lipase. Dissolve the PCL powder in water, centrifuge to obtain the supernatant and treat the supernatant with different concentrations of surfactant DDM (the final protein concentration was 0.2 mg·mL^−1).

[3] = tested on: Rhizopus chinensis lipase r27RCL; assay: Ester synthesis activity of surfactant-treated lyophilized lipase r27RCL by GC analysis; conditions: surfactant 10 mM, protein 0.2 mg·mL^−1
Description: (§13) (2) Determination of Ester Synthesis Activity of the Lipase by GC Analysis
(§14) Substrate solution A: 48.5 mL of n-octanoic acid is dissolved in 250 mL of n-heptane in a volumetric flask.
(§15) Substrate solution B: 17.5 mL of absolute ethanol is dissolved in 250 mL of n-heptane in a volumetric flask.
(§16) Internal standard: 2-hexanol/n-heptane (35 g·L^−1).
(§17) Standard sample: 10 g of n-octanoate is dissolved in 1000 mL of n-heptane in a volumetric flask.
(§18) 1 mL substrate solution A and substrate solution B are added in a 5 mL Eppendorf tube respectively, then 20 mg lipase powder (or lyophilized powder) is added. The reaction is carried out at 40° C. and with shaking at 150 rpm for 30 min. Remove the lipase powder by centrifugation or membrane filtration. Then 0.1 mL of internal standard is added in 0.4 mL of filtrate or supernatant and mixed. Measure the content of n-octanoate in the mixture above by GC analysis.
(§19) The gas chromatograph (6820, Agilent Instruments) is equipped with a AC20 (PEG20000) capillary column and a FID detector. Nitrogen was used as the carrier gas. The oven temperature was programmed to start at 90° C. for 1 min and then be elevated to 200° C. for 5 min at 10° C.·min^−1. The injector and detector temperatures were set at 250° C.
(§20) Definition of enzyme activity: One unit of ester synthesis activity is defined as the amount of enzyme that esterifies 1 micromole of n-octanoate per min.
(§21) Specific activity: the activity of lipase per milligram of total protein in the lipase preparation.
(§22) Total recovery: the percentage of the activity after a treatment to that before the treatment
(§23) Add an equal volume of high-concentration surfactant solution into the enzyme solution. The final protein concentration was […] and the surfactant concentration was 10 mM. After mixed thoroughly, the mixture was lyophilized and kept in dry condition.
(§24) Commercial lipase r27RCL was purchased from Jiangsu Yiming Biological Technology Co., Ltd, which has high hydrolytic activity and low ester synthesis activity. Dissolve the r27RCL powder in water and centrifuge to obtain the supernatant containing the r27RCL lipase to adjust the ester synthesis activity (the final protein concentration was 0.2 mg·mL^−1 and the final concentration of surfactant was 10 mM, which is between 0.1×CMC^˜200×CMC of the different surfactants in Table 1).
(§25) Commercial lipase r27RCL was purchased from Jiangsu Yiming Biological Technology Co., Ltd. r27RCL is a lipase with high hydrolytic activity but low ester synthesis activity. Dissolve the r27RCL powder in water, centrifuge to obtain the supernatant and treat the supernatant with different concentrations of surfactant LPC14 (the final protein concentration was 0.2 mg·mL^−1).

[4] = tested on: Rhizopus chinensis lipase r27RCL; assay: Hydrolytic activity of surfactant-treated lipase r27RCL using pNPP as substrate; conditions: surfactant 10 mM, protein 0.2 mg·mL^−1
Excerpt: as §1, §2, §3, §4, §5, §6, §7, §8, §24, §25

[5] = molecular target: T3, Rhizoupus oryzae lipase ROL (Rhizopus oryzae, UniProt P61872); assay: Hydrolytic activity of surfactant-treated lipase ROL using pNPP as substrate; conditions: surfactant 10 mM, protein 0.2 mg·mL^−1
T3 construct: purchased Sigma-Aldrich Co., Ltd
Excerpt: as §1, §2, §3, §4, §5, §6, §7, §8
(§26) Commercial lipase ROL was purchased from Sigma-Aldrich Co., Ltd. ROL is a non-immobilized lipase. Dissolve the ROL powder in water and centrifuge to obtain the supernatant containing the ROL lipase that would be regulated to improve its ester synthesis activity by adjusting the final protein concentration to 0.2 mg·mL^−1 and adding surfactants to the final concentration of 10 mM.
(§27) Commercial lipase ROL was purchased from Sigma-Aldrich Co., Ltd. and is a non-immobilized lipase. Dissolve the ROL powder in water, centrifuge to obtain the supernatant and treat the supernatant with different concentrations of surfactant LPC14 (the final protein concentration was 0.2 mg·mL^−1).

[6] = molecular target: T2, Pseudomonas cepacia lipase PCL; assay: Ester synthesis activity of surfactant-treated lyophilized lipase PCL by GC analysis; conditions: surfactant 10 mM, protein 0.2 mg·mL^−1
Description: as §13, §14, §15, §16, §17, §18, §19, §20, §21, §22, §23, §11, §12

[7] = molecular target: T3, Rhizoupus oryzae lipase ROL; assay: Ester synthesis activity of surfactant-treated lyophilized lipase ROL by GC analysis; conditions: surfactant 10 mM, protein 0.2 mg·mL^−1
Description: as §13, §14, §15, §16, §17, §18, §19, §20, §21, §22, §23, §26, §27

[8] = molecular target: T1, Candida antarctica lipase CALB; assay: Ester synthesis activity of surfactant-treated lyophilized lipase CALB by GC analysis; conditions: surfactant 10 mM, protein 0.12 mg·mL^−1
Description: as §13, §14, §15, §16, §17, §18, §19, §20, §21, §22, §23, §9, §10

T1 sequence (P41365 26-342): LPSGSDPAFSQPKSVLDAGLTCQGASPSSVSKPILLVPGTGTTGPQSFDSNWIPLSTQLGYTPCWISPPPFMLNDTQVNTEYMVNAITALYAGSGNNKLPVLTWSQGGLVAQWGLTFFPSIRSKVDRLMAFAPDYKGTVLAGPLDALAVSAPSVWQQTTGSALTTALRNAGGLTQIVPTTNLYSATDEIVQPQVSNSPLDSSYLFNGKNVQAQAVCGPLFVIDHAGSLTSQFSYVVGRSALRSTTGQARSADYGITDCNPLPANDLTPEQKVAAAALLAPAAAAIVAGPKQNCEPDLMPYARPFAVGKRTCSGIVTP
T2 sequence (P22088 45-364): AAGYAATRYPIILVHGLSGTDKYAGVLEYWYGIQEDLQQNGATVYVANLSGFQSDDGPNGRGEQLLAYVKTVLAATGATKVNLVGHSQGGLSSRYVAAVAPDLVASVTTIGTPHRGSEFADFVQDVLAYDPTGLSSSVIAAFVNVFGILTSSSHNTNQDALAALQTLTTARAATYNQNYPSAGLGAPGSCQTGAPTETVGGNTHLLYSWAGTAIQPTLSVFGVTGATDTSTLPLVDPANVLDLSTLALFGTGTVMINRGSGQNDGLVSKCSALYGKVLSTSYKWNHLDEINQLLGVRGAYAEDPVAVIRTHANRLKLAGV
T3 sequence (P61872 96-392): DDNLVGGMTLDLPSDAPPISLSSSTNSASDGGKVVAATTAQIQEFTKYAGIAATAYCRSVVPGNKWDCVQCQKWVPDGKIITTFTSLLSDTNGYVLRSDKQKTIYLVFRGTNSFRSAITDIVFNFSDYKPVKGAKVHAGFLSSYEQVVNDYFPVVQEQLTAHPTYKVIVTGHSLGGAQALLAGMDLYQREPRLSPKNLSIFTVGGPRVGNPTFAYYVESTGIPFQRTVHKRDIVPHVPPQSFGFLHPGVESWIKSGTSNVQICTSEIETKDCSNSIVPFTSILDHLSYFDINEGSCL

Compound | Hydrolytic activity, Specific activity [1] | Hydrolytic activity, Total recovery [1] | Hydrolytic activity, Specific activity [2] | Hydrolytic activity, Total recovery [2] | Ester synthesis activity, Specific activity [3] | Ester synthesis activity, Total recovery [3] | Hydrolytic activity, Specific activity [4] | Hydrolytic activity, Total recovery [4] | Hydrolytic activity, Specific activity [5] | Hydrolytic activity, Total recovery [5] | Ester synthesis activity, Specific activity [6] | Ester synthesis activity, Total recovery [6] | Ester synthesis activity, Specific activity [7] | Ester synthesis activity, Total recovery [7] | Ester synthesis activity, Specific activity [8] | Ester synthesis activity, Total recovery [8]
polyethylene glycol octylphenyl Ether [Triton X-100] | 0 U · mg^−1 | 0% | 364.5 U · mg^−1 | 131% | 12.9 U · mg^−1 | 192% | 116.6 U · mg^−1 | 93% | 34.9 U · mg^−1 | 99% | 6.3 U · mg^−1 | 174% | 1.7 U · mg^−1 | 200% | 77.4 U · mg^−1 | –
C[C@H](CCC(=O)NCCC[N+](C)(C)CCCS(=O)(=O)[O-])[C@H]1CC[C@H]2[C@@H]3[C@H](O)C[C@@H]4C[C@H](O)CC[C@]4(C)[C@H]3C[C@H](O)[C@]12C [CHAPS, 3-[(3-Cholamidopropyl)dimethylammonio]-1-propanesulfonate] | 1.6 U · mg^−1 | 92% | 248.0 U · mg^−1 | 101% | 13.0 U · mg^−1 | 105% | 132.6 U · mg^−1 | 109% | 23.6 U · mg^−1 | 81% | 4.7 U · mg^−1 | 130% | 2.6 U · mg^−1 | – | 5.9 U · mg^−1 | 44%
CCCCCC(=O)OC[C@H](COP(=O)([O-])OCC[N+](C)(C)C)OC(=O)CCCCC [DiC6PC, 1,2-dihexanoyl lecithin] | 0.98 U · mg^−1 | 85% | 308.2 U · mg^−1 | 140% | 15.9 U · mg^−1 | 256% | 104.2 U · mg^−1 | 87% | 15.2 U · mg^−1 | 76% | 7.1 U · mg^−1 | 260% | 3.11 U · mg^−1 | – | 31.9 U · mg^−1 | –
